Results taken from US11427783B2, “Perfuming compositions” (Firmenich SA, priority 2016, dated 2022).
Counter-ions that a name gives are not always drawn.

Assay: Volatility of perfuming compounds in air
Type: physicochemical
[1] = Table 10, perfuming compounds having a woody note
[2] = Table 8, perfuming compounds having a sweet note
[3] = Table 5, perfuming compounds having a green note
[4] = Table 9, perfuming compounds having a gourmand note
[5] = Table 6, perfuming compounds having a fruity note

## CC1=CCC(/C=C/C(C)C(C)O)C1(C)C (stereo not shown)
[1]
  Volatility (μg/l air): 20.41 μg/l air

## SCc1ccco1 [2-FURANMETHANETHIOL]
[2]
  Volatility (μg/l air): 29677.31 μg/l air

## CCCC(=NO)C(C)C [2-METHYL-3-HEXANONE OXIME]
[3]
  Volatility: 687.75 μg/l air

## C=C1CCCC(C)(C)C1C(=O)/C=C/C (racemic)
[2]
  Volatility (μg/l air): 152.99 μg/l air
[4]
  Volatility (μg/l air): 152.99 μg/l air

## Cc1ncsc1CCO [2-(4-METHYL-1,3-THIAZOL-5-YL)-1-ETHANOL]
[2]
  Volatility (μg/l air): 2.36 μg/l air

## CC(C)(C)C(=O)OCCc1ccccc1 [2-PHENYLETHYL PIVALATE]
[5]
  Volatility (μg/l air): 71.44 μg/l air
[2]
  Volatility (μg/l air): 71.44 μg/l air
[4]
  Volatility (μg/l air): 71.44 μg/l air

## CCCC(S)CCOC (racemic) [(+−)-1-METHOXY-3-HEXANETHIOL]
[3]
  Volatility: 2534.77 μg/l air

## C=C/C=C/C=C\CCCCC
[3]
  Volatility: 1247.28 μg/l air

## COc1ccc(COC(C)=O)cc1 [4-METHOXYBENZYL ACETATE]
[5]
  Volatility (μg/l air): 17.59 μg/l air

## CC(=O)OCCC1=CCC2CC1C2(C)C (stereo not shown)
[1]
  Volatility (μg/l air): 60.02 μg/l air

## CC/C=C\CCOC(C)=O [(Z)-3-HEXENYL ACETATE]
[3]
  Volatility: 3398.34 μg/l air

## CC(C)=CCC/C(C)=C/CO
Table 7, citrus note
  Volatility: 89.88 μg/l air

## CC(=O)OCCC1CCCCC1 [2-CYCLOHEXYLETHYL ACETATE]
[2]
  Volatility (μg/l air): 489.45 μg/l air
[4]
  Volatility (μg/l air): 489.45 μg/l air

## CCCC(O)CCC1C(C)CCC(C)C1(C)C (racemic)
[1]
  Volatility (μg/l air): 3.42 μg/l air

## OCCc1ccccc1 [2-PHENYLETHANOL]
[2]
  Volatility (μg/l air): 159.75 μg/l air
[4]
  Volatility (μg/l air): 159.75 μg/l air

## N#CC(=C1CCCCC1)c1ccccc1 [CYCLOHEXYLIDENE(PHENYL)ACETONITRILE]
[3]
  Volatility: 0.96 μg/l air

## CC1CC(C)(C)OC(Cc2ccccc2)O1 (stereo not shown)
[3]
  Volatility: 29.99 μg/l air

## O=COCc1ccccc1 [BENZYL FORMATE]
[3]
  Volatility: 1339.53 μg/l air

## CC1CC(C)(c2ccccc2)OC(C)O1 (stereo not shown)
[5]
  Volatility (μg/l air): 113.83 μg/l air

## CCC(=O)OCC(C)(C)OC(C)C1CCCC(C)(C)C1 (single isomer, unassigned; (+))
[5]
  Volatility (μg/l air): 4.39 μg/l air

## COC(=O)/C=C/c1ccccc1 [METHYL (E)-3-PHENYL-2-PROPENOATE]
[5]
  Volatility (μg/l air): 61.65 μg/l air

## CC(=O)c1ccccc1 [1-phenylethanone]
[2]
  Volatility (μg/l air): 1728.98 μg/l air

## O=C/C=C/c1ccccc1 [(E)-3-PHENYL-2-PROPENAL]
[1]
  Volatility (μg/l air): 70.14 μg/l air

## Cc1cnc(C)c(C)n1 [2,3,5-TRIMETHYLPYRAZINE]
[2]
  Volatility (μg/l air): 7897.31 μg/l air

## CCC(C)C1(C)COC(C2CCC(C)=CC2C)OC1 (stereo not shown)
[1]
  Volatility (μg/l air): 3.82 μg/l air

## CCC(O)COC1CCCCC1C(C)(C)C (racemic)
[1]
  Volatility (μg/l air): 205.05 μg/l air

## CCCCCCCCCCO [1-DECANOL]
[3]
  Volatility: 31.90 μg/l air

## O=c1ccc2ccccc2o1 [2-CHROMENONE]
[2]
  Volatility (μg/l air): 0.51 μg/l air
[4]
  Volatility (μg/l air): 0.51 μg/l air

## (−)-(1S)-2,6,6-TRIMETHYL-BICYCLO[3.1.1]HEPT-2-ENE
[3]
  Volatility: 33722.60 μg/l air

## CCCC=C1OC(=O)c2ccccc21 [3-BUTYLIDENE-1-BENZO[C]FURANONE]
[2]
  Volatility (μg/l air): 14.37 μg/l air
[4]
  Volatility (μg/l air): 14.37 μg/l air

## CC(C)Cc1ccc2ccccc2n1 [2-ISOBUTYLQUINOLINE]
[2]
  Volatility (μg/l air): 8.73 μg/l air

## COc1ccc(C(C)=O)cc1 [1-(4-METHOXYPHENYL)-1-ETHANONE”]
[3]
  Volatility: 50.21 μg/l air

## COC(=O)Cc1ccccc1 [METHYL PHENYLACETATE]
[2]
  Volatility (μg/l air): 555.30 μg/l air
[4]
  Volatility (μg/l air): 555.30 μg/l air

## CC(=O)/C(C)=C(/C)C(C)C(C)(C)C (racemic)
[1]
  Volatility (μg/l air): 659.22 μg/l air

## CCC(=O)OC/C=C/c1ccccc1 [(E)-3-PHENYL-2-PROPENYL PROPANOATE]
[5]
  Volatility (μg/l air): 8.14 μg/l air

## CC1(C)CCC[C@@]2(C)[C@H]1CC[C@@]1(C)OCC[C@@H]21
[1]
  Volatility (μg/l air): 9.23 μg/l air

## CCC(=CCC1CC=C(C)C1(C)C)CO (racemic)
[1]
  Volatility (μg/l air): 3.69 μg/l air

## COc1ccc(CCC(C)=O)cc1 [4-(4-METHOXYPHENYL)-2-BUTANONE]
[5]
  Volatility (μg/l air): 5.58 μg/l air
[2]
  Volatility (μg/l air): 5.58 μg/l air
[4]
  Volatility (μg/l air): 5.58 μg/l air

## CCCC1CCC(=O)O1 (racemic) [(+−)-4-HEPTANOLIDE]
[2]
  Volatility (μg/l air): 295.34 μg/l air

## CCOCOC1CCCCCCCCCCC1 [(ETHOXYMETHOXY)CYCLODODECANE]
[1]
  Volatility (μg/l air): 6.63 μg/l air

## CCCC(=O)OC(C)(C)Cc1ccccc1 [1,1-DIMETHYL-2-PHENYLETHYL BUTANOATE]
[5]
  Volatility (μg/l air): 34.65 μg/l air
[2]
  Volatility (μg/l air): 34.65 μg/l air
[4]
  Volatility (μg/l air): 34.65 μg/l air

## Cc1occc(=O)c1O [3-HYDROXY-2-METHYL-4(4H)-PYRANONE]
[5]
  Volatility (μg/l air): 92.42 μg/l air
[2]
  Volatility (μg/l air): 92.42 μg/l air
